Assays:
Assay type in all cases: biochemical
human ME2 enzyme = human ME2 enzyme (Homo sapiens, UniProt P23368); experiment: ME2 inhibition assay (diaphorase/resazurin coupled fluorescence); details: 10 μM compound concentration; read-out: Malic Enzyme 2 % inhibition (10 μM)
Experimental: (§1) ME2 catalyzes the oxidative decarboxylation of malate to pyruvate with conversion of the co-factor β-NAD+ to β-NADH. In the fluorescence assay, a coupled reaction is set up where in an enzyme, Diaphorase, utilizes NADH generated by ME2, to convert the dye resazurin to a fluorescent molecule resorufin. Resorufin has a characteristic fluorescence with excitation/emission at 540/600 nm (SLAS Discov., 2017 April 1:2472555217706649).
The enzyme activity inhibition assay is set up in a 200 μL final reaction volume in a 96-well plate. As per the experimental design, 2 μL of the compounds at 100× the desired concentration (10 μM) in DMSO were added to the respective wells with 178 μL of assay buffer (50 mM Tris-HCl pH 7.5, 10 mM MnCl2, 7 mM L-malate, 50 μM Resazurin and 0.025 mg/ml Diapharose). The 96-well plate was incubated on a plate shaker at room temperature for 15 minutes protected from light. The well contents were gently mixed by adding 10 μL of 60 nM human ME2 enzyme to the wells and the plate was incubated on a shaker at room temperature for 5 minutes protected from light. Suitable ‘enzyme only’ and ‘no enzyme’ controls were included in the experiment. The enzymatic reaction was started by adding 10 μL of 2 mM β-NAD+. The reaction was gently mixed and the plate was initially left on a shaker at room temperature for −7 minutes protected from light. Later, the plate was incubated without shaking at room temperature for 2 hours. At the end of 2 hours, the fluorescence of the wells was measured at excitation 540 nm and emission 600 nm. The % enzyme activity of the compounds is obtained by normalizing the data with enzyme only (100%) and no enzyme controls (0%) using GraphPad Prism software 7.04.

human ME3 enzyme = molecular target: T1, human ME3 enzyme (Homo sapiens, UniProt Q16798); experiment: ME3 inhibition assay (diaphorase/resazurin coupled fluorescence); details: 10 μM compound concentration; read-out: Malic Enzyme 3 % inhibition (10 μM)
T1 sequence (Q16798 1-604): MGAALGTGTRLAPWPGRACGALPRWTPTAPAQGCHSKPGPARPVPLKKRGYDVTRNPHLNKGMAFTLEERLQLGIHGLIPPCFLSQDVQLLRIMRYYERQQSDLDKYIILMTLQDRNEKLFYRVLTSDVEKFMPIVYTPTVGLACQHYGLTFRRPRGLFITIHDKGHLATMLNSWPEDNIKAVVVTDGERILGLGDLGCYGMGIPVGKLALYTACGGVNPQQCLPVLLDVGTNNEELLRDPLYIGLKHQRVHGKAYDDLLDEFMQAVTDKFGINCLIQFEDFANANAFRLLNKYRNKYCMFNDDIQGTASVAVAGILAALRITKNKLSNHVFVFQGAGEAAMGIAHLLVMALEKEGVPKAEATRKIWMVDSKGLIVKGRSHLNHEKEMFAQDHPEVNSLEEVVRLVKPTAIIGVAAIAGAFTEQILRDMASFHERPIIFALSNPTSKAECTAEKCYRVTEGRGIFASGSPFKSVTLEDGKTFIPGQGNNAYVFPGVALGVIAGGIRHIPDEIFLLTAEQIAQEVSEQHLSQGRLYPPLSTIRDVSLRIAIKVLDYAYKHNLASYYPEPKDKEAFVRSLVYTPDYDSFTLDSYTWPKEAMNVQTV
Method in brief: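 Coupled read-out: NADPH made by human ME3 (20 nM stock) drives diaphorase conversion of resazurin (50 μM) to resorufin; buffer 50 mM Tris-HCl pH 7.5, 10 mM MnCl2, 3 mM L-malate.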

human ME1 enzyme = molecular target: T2, human ME1 enzyme (Homo sapiens, UniProt P48163); experiment: ME1 inhibition assay (diaphorase/resazurin coupled fluorescence); details: 10 μM compound concentration; read-out: Malic Enzyme 1 % inhibition (10 μM)
T2 sequence (P48163 1-572): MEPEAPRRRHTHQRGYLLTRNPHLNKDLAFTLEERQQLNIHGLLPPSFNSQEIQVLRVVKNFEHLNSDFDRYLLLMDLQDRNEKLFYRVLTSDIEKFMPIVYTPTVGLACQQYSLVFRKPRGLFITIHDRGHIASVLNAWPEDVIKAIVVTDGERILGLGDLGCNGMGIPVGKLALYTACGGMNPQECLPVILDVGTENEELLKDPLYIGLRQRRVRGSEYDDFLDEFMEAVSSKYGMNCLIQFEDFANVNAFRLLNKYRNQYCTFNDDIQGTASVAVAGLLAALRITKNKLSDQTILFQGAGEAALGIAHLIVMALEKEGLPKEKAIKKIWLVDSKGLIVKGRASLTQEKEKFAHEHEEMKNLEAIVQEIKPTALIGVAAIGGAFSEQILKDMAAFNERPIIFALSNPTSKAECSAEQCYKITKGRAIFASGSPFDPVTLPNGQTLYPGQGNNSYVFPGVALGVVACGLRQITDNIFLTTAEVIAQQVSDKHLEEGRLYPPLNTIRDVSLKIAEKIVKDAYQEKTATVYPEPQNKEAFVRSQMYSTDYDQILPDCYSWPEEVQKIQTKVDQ
Experimental: as §1, with “ME1” for “ME2”, “β-NADP+” for “β-NAD+”, “β-NADPH.” for “β-NADH.”, “NADPH” for “NADH”, “ME1,” for “ME2,”
The enzyme activity inhibition assay is set up in a 200 μL final reaction volume in a 96-well plate. As per the experimental design, 2 μL of the compounds at 100× the desired concentration (10 μM) in DMSO were added to the respective wells with 178 μL of assay buffer (50 mM Tris-HCl pH 7.5, 10 mM MnCl2, 2 mM L-malate, 10 μM Resazurin and 0.01 mg/ml Diapharose). The 96-well plate was incubated on a plate shaker at room temperature for 15 minutes protected from light. The well contents were gently mixed by adding 10 μL of 20 nM human ME1 enzyme to the wells and the plate was incubated on a shaker at room temperature for 5 minutes protected from light. Suitable ‘enzyme only’ and ‘no enzyme’ controls were included in the experiment. The enzymatic reaction was started by adding 10 μL of 0.3 mM D-NADP+. The reaction was gently mixed and the plate was initially left on a shaker at room temperature for −7 minutes protected from light. Later, the plate was incubated without shaking at room temperature for 2 hours. At the end of 2 hours, the fluorescence of the wells was measured at excitation 540 nm and emission 600 nm. The % enzyme activity of the compounds is obtained by normalizing the data with enzyme only (100%) and no enzyme controls (0%) using GraphPad Prism software 7.04.

Chain of human ME2 enzyme (P23368 19-584): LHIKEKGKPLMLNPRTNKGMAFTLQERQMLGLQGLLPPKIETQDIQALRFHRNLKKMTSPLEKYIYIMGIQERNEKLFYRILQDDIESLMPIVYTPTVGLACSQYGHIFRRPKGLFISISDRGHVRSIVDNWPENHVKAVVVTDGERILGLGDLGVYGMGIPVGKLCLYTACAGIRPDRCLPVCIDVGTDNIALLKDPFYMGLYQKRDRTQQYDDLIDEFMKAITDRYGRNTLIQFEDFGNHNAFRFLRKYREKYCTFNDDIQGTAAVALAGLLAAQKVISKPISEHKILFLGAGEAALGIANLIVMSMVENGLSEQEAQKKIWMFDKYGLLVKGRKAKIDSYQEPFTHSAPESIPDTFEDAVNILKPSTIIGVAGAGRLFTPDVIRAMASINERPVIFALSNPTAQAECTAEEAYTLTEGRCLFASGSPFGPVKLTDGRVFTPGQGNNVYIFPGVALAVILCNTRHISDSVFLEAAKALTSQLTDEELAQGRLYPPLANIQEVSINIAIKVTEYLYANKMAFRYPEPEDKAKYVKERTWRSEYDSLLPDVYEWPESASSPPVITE

Compound | inhibition at 10 µM (human ME2 enzyme) [%] | inhibition at 10 µM (human ME3 enzyme) [%] | inhibition at 10 µM (human ME1 enzyme) [%]
O=C(C(c1ccccc1)c1ccccc1)N1CCN(c2ccc(O)cn2)CC1 [I.48, 1-[4-(5-Hydroxy-2-pyridyl)-piperazin-1-yl]-2,2-diphenyl-ethanone] | 70 to 89 | > 90 | 70 to 89
O=C(Cc1ccccc1Oc1ccccc1)N1CCN(c2ccc(O)cc2)CC1 [I.49, 1-[4-(4-hydroxyphenyl)piperazin-1-yl]-2-(2-phenoxyphenyl)ethanone] | > 90 | > 90 | > 90
O=C(c1ccnc(N2CCCCC2)c1)N1CCN(c2ccc(O)cc2)CC1 [I.50, [4-(4-Hydroxy-phenyl)-piperazin-1-yl]-[2-(1-piperidyl)-4-pyridyl]-methanone] | > 90 | > 90 | > 90
O=C(CCc1c[nH]c2ccccc12)N1CCN(c2ccc(O)cn2)CC1 [I.51, 1-[4-(5-Hydroxy-pyridin-2-yl)-piperazin-1-yl]-3-(1H-indol-3-yl)-propan-1-one] | 70 to 89 | > 90 | 70 to 89
Cc1cc(N2CCN(C(=O)Cc3ccccc3)CC2)ccc1O [I.52, 1-[4-(4-Hydroxy-3-methyl-phenyl)-piperazin-1-yl]-2-phenyl-ethanone] | > 90 | > 90 | > 90
O=C(CCc1c2ccccc2cc2ccccc12)N1CCN(c2ccc(O)cc2)CC1 [I.53, 3-Anthracen-9-yl-1-[4-(4-hydroxy-phenyl)-piperazin-1-yl]-propan-1-one] | > 90 | > 90 | > 90
O=C(c1c[nH]c2ccccc2c1=O)N1CCN(c2ccc(O)cn2)CC1 [I.54, 3-[4-(5-Hydroxy-2-pyridyl)-piperazine-1-carbonyl]-1H-quinolin-4-one] | 50 to 69 | > 90 | 70 to 89
O=C(CC12CC3CC(CC(C3)C1)C2)N1CCN(c2ccc(O)cn2)CC1 [I.55, 2-(1-adamantyl)-1-[4-(5-hydroxy-2-pyridyl)piperazin-1-yl]ethanone] | 70 to 89 | > 90 | > 90
O=C(CC12CC3CC(CC(O)(C3)C1)C2)N1CCN(c2ccc(O)cn2)CC1 [I.56, 2-(3-Hydroxy-1-adamantyl)-1-[4-(5-hydroxy-2-pyridyl)-piperazin-1-yl]ethanone] | 70 to 89 | > 90 | 50 to 69
O=C(CNCC12CC3CC(CC(C3)C1)C2)N1CCN(c2ccc(O)cn2)CC1 [I.57, 2-(1-adamantylmethylamino)-1-[4-(5-hydroxy-2-pyridyl)piperazin-1-yl]ethanone] | 70 to 89 | > 90 | 70 to 89
O=C(C(c1ccc(Cl)cc1)c1ccc(Cl)cc1)N1CCN(c2ccc(O)cn2)CC1 [I.58, 2,2-bis(4-Chloro-phenyl)-1-[4-(5-hydroxy-2-pyridyl)-piperazin-1-yl]ethanone] | 50 to 69 | > 90 | 70 to 89
O=C(c1cn(CC2CC2)c2ccccc2c1=O)N1CCN(c2ccc(O)cn2)CC1 [I.59, 1-(Cyclo-propyl-methyl)-3-[4-(5-hydroxy-2-pyridyl)-piperazine-1-carbonyl]-quinolin-4-one] | 70 to 89 | > 90 | 70 to 89
O=C(C=C1c2ccccc2-c2ccccc21)N1CCN(c2ccc(O)cn2)CC1 [I.60, 2-Fluoren-9-ylidene-1-[4-(5-hydroxy-2-pyridyl)-piperazin-1-yl]ethanone] | 70 to 89 | > 90 | 70 to 89
O=C(CC1c2ccccc2-c2ccccc21)N1CCN(c2ccc(O)cn2)CC1 [I.61, 2-(9H-Fluoren-9-yl)-1-[4-(5-hydroxy-2-pyridyl)-piperazin-1-yl]ethanone] | 70 to 89 | > 90 | 70 to 89
O=C(Cc1c[nH]c2ccccc12)N1CCN(c2ccc(O)cn2)CC1 [I.62, 1-[4-(5-Hydroxy-pyridin-2-yl)-piperazin-1-yl]-2-(1H-indol-3-yl)-ethanone] | 70 to 89 | > 90 | 70 to 89
O=C(c1c[nH]c2ncccc12)N1CCN(c2ccc(O)cn2)CC1 [I.63, [4-(5-Hydroxy-pyridin-2-yl)-piperazin-1-yl]-(1H-pyrrolo[2,3-b]pyridin-3-yl)-methanone] | 70 to 89 | > 90 | 70 to 89
O=C(c1c2ccccc2cc2ccccc12)N1CCN(c2ccc(O)cn2)CC1 [I.64] | 50 to 69 | > 90 | 70 to 89
O=C(CCCc1ccccc1)N1CCN(c2ccc(O)cn2)CC1 [I.65, 1-[4-(5-Hydroxy-pyridin-2-yl)-piperazin-1-yl]-4-phenylbutan-1-one] | 70 to 89 | > 90 | 70 to 89
O=C(CCc1ccncc1)N1CCN(c2ccc(O)cn2)CC1 [I.66, 1-[4-(5-Hydroxy-pyridin-2-yl)-piperazin-1-yl]-3-pyridin-4-yl-propan-1-one] | 70 to 89 | > 90 | 70 to 89
O=C(C1Cc2ccccc2C1)N1CCN(c2ccc(O)cn2)CC1 [I.67, [4-(5-Hydroxy-pyridin-2-yl)-piperazin-1-yl]-indan-2-yl-methanone] | 50 to 69 | > 90 | > 90
